Measured values taken from patent US8962880B2, “Amorphous asiatic tromethamine salt and preparation method thereof” (Shanghai Institute of Pharmaceutical Industry, priority 2011, dated 2015).
In brackets after ≈: the same amount, converted by molar mass.

Legend:
[1] = physchem
[2] = in vivo, 50 mg

## C[C@H]1[C@H](C)CC[C@]2(C(=O)O)CC[C@]3(C)C(=CC[C@@H]4[C@@]5(C)C[C@@H](O)[C@H](O)[C@@](C)(CO)[C@@H]5CC[C@]43C)[C@H]12 [asiatic acid, 2α,3β,23-trihydroxy-ursa-12-en-28-oic acid]
[1]; organic solvent or mixture
  solubility: 33.1 mg/mL (≈ 67.7 mM)
[1]; water
  solubility: 0.03 mg/mL (≈ 0.0614 mM)

## C[C@H]1[C@H](C)CC[C@]2(C(=O)O)CC[C@]3(C)C(=CC[C@@H]4[C@@]5(C)C[C@@H](O)[C@H](O)[C@@](C)(CO)[C@@H]5CC[C@]43C)[C@H]12.NC(CO)(CO)CO [comparative sample, asiatic acid tromethamine salt]
[2]
  bioavailability: ca. 7.6%
